Consider five compounds from US20060009487A1, “Heterocyclic derivatives for treatment of hyperlipidemia and related diseases” (priority 2004, published 2006).

Broadly, the melting point is the temperature, or range, at which the solid turns liquid. `O=C(O)c1cnc2ccccc2c1NCCCNc1ncccn1` [E6, n=2, R=H, 4-[3-(Pyrimidin-2-yl-amino)-propylamino]-quinoline-3-carboxylic acid]: the melting point was 269 °C.

The compound `Nc1c(C(=O)O)cnc2ccccc12` [F3, 4-Amino-quinoline-3-carboxylic acid] gave a melting point of 305 °C.

In turn, `CCOC(=O)c1cnc2ccccc2c1NCCCCCNc1ncccn1` [E6, n=4, R═CH2CH3, 4-[5-(Pyrimidin-2-ylamino)-pentylamino]-quinoline-3-carboxylic acid ethyl ester] came in with a melting point of 108 °C.

Consider `N=C(N)NCCNc1c(C(=O)O)cnc2ccccc12` [E5, n=1, 4-(2-Guanidino-ethylamino)-quinoline-3-carboxylic acid], for which the melting point is 267 °C.

Compound `Cc1nc2ccccc2c(-c2ccccc2)c1CC(NC(=O)CCCC(=O)O)C(=O)NCCCCN` (centres unmarked) [D9, 4-[1-(4-Amino-butylcarbamoyl)-2-(2-methyl-4-phenyl-quinolin-3-yl)-ethylcarbamoyl]-butyric acid] gave a melting point of 129 °C.
